Assay results reported in US12077503B2, “Substituted cyclic amides and their use as herbicides” (FMC CORPORATION, priority 2015, dated 2024).

Legend:
Type in all cases: in vivo
[1] = test system: Kochia (Kochia scoparia); assay: Test A preemergence
How it was run: (§1)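 Compounds were formulated in a non-phytotoxic solvent mixture with surfactant and applied as a preemergence directed soil spray after seeding, or sprayed postemergence over plants 2 to 10 cm tall at the one- to two-leaf stage. Evaluation after about 10 d compared treated with untreated controls, using a scale from 0 (no effect) to 100 (complete control).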

[2] = test system: barnyardgrass (Echinochloa crus-galli); assay: Test A preemergence
How it was run: as §1

[3] = test system: giant foxtail (Setaria faberii); assay: Test A preemergence
How it was run: as §1

[4] = test system: pigweed (Amaranthus retroflexus); assay: Test A preemergence
[5] = test system: ragweed (common ragweed, Ambrosia elatior); assay: Test A preemergence
How it was run: as §1

[6] = test system: ryegrass, Italian (Italian ryegrass, Lolium multiflorum); assay: Test A preemergence
How it was run: as §1

[7] = test system: Galium (catchweed bedstraw, Galium aparine); assay: Test A postemergence; settings: postemergence; for Plant response rating, Galium: 0 to 100 scale (0 no effect, 100 complete control)
How it was run: as §1

[8] = test system: Kochia (Kochia scoparia); assay: Test A postemergence; settings: postemergence; for Plant response rating, Kochia: 0 to 100 scale (0 no effect, 100 complete control)
How it was run: as §1

[9] = test system: barnyardgrass (Echinochloa crus-galli); assay: Test A postemergence; settings: postemergence; for Plant response rating, Barnyardgrass: 0 to 100 scale (0 no effect, 100 complete control)
How it was run: as §1

[10] = test system: blackgrass (Alopecurus myosuroides); assay: Test A postemergence; settings: postemergence; for Plant response rating, Blackgrass: 0 to 100 scale (0 no effect, 100 complete control)
How it was run: as §1

[11] = test system: corn (Zea mays); assay: Test A postemergence; settings: postemergence; for Plant response rating, Corn: 0 to 100 scale (0 no effect, 100 complete control)
How it was run: as §1

[12] = test system: giant foxtail (Setaria faberii); assay: Test A postemergence; settings: postemergence; for Plant response rating, Foxtail, Giant: 0 to 100 scale (0 no effect, 100 complete control)
How it was run: as §1

[13] = test system: pigweed (Amaranthus retroflexus); assay: Test A postemergence; settings: postemergence; for Plant response rating, Pigweed: 0 to 100 scale (0 no effect, 100 complete control)
How it was run: as §1

[14] = test system: ragweed (common ragweed, Ambrosia elatior); assay: Test A postemergence; settings: postemergence; for Plant response rating, Ragweed: 0 to 100 scale (0 no effect, 100 complete control)
How it was run: as §1

[15] = test system: ryegrass, Italian (Italian ryegrass, Lolium multiflorum); assay: Test A postemergence; settings: postemergence; for Plant response rating, Ryegrass, Italian: 0 to 100 scale (0 no effect, 100 complete control)
How it was run: as §1

[16] = test system: wheat (Triticum aestivum); assay: Test A postemergence; settings: postemergence; for Plant response rating, Wheat: 0 to 100 scale (0 no effect, 100 complete control)
How it was run: as §1

[17] = test system: barnyardgrass (Echinochloa crus-galli); assay: Test B flooded paddy test; settings: Flood; for Plant response rating, Barnyardgrass: 0 to 100 scale where 0 is no effect and 100 is complete control, 13 to 15 d
How it was run: (§2)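 2-leaf plants; pots flooded 3 cm over soil; cpd added to paddy water; depth held; greenhouse 13–15 d; visual rating vs controls, 0 = no effect, 100 = complete control.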

[18] = test system: ducksalad (Heteranthera limosa); assay: Test B flooded paddy test; settings: Flood; for Plant response rating, Ducksalad: 0 to 100 scale where 0 is no effect and 100 is complete control, 13 to 15 d
How it was run: as §2

[19] = test system: rice (Oryra sativa); assay: Test B flooded paddy test; settings: Flood; for Plant response rating, Rice: 0 to 100 scale where 0 is no effect and 100 is complete control, 13 to 15 d
How it was run: as §2

[20] = test system: sedge, umbrella (small-flower umbrella sedge, Cyperus difformis); assay: Test B flooded paddy test; settings: Flood; for Plant response rating, Sedge, Umbrella: 0 to 100 scale where 0 is no effect and 100 is complete control, 13 to 15 d
How it was run: as §2

[21] = 125 g ai/ha, Preemergence, visual injury after approximately 10 d, 0 to 100 scale where 0 is no effect and 100 is complete control
[22] = 500 g ai/ha, preemergence, 0 to 100 scale, 0 = no effect, 100 = complete control
[23] = 125 g ai/ha, visual rating after approx. 10 d
[24] = 500 g ai/ha, visual injury, approx. 10 d
[25] = 125 g ai/ha, preemergence, visual rating after approx. 10 d, 0 to 100 scale where 0 is no effect and 100 is complete control
[26] = 125 g ai/ha, visual injury after approximately 10 d

CN1C[C@H](c2cccc(OC(F)(F)C(F)F)c2)[C@@H](C(=O)Nc2ccccc2[S+](C)[O-])C1=O (some centres unmarked) [Compound 863]
pest or weed control at 125 g/ha ([1]; Bassia scoparia, pre-emergence, 240 h, 125 g ai/ha, preemergence, 0 to 100 scale where 0 is no effect and 100 is complete control, read-out: Kochia plant response rating): 80%
pest or weed control at 125 g/ha ([2]; Echinochloa crus-galli, pre-emergence, 240 h, 125 g ai/ha, preemergence, 0 to 100 scale where 0 is no effect and 100 is complete control, read-out: Barnyardgrass plant response rating): 50%
pest or weed control at 125 g/ha ([3]; Setaria faberi, pre-emergence, 240 h, 125 g ai/ha, preemergence, 0 to 100 scale where 0 is no effect and 100 is complete control, read-out: Foxtail, Giant plant response rating): 90%
pest or weed control at 125 g/ha ([4]; Amaranthus retroflexus, pre-emergence, 240 h, 125 g ai/ha, preemergence, 0 to 100 scale where 0 is no effect and 100 is complete control, read-out: Pigweed plant response rating): 70%
pest or weed control at 125 g/ha ([5]; Ambrosia artemisiifolia, pre-emergence, 240 h, 125 g ai/ha, preemergence, 0 to 100 scale where 0 is no effect and 100 is complete control, read-out: Ragweed plant response rating): 0%
pest or weed control at 125 g/ha ([6]; Lolium multiflorum, pre-emergence, 240 h, 125 g ai/ha, preemergence, 0 to 100 scale where 0 is no effect and 100 is complete control, read-out: Ryegrass, Italian plant response rating): 0%
pest or weed control at 125 g/ha ([7]; Galium, post-emergence, 240 h, 125 g ai/ha, visual injury rating after approximately 10 d, read-out: Galium plant response rating (0 to 100 scale, 0 no effect, 100 complete control)): 30%
pest or weed control at 125 g/ha ([8]; Bassia scoparia, post-emergence, 240 h, 125 g ai/ha, visual injury rating after approximately 10 d, read-out: Kochia plant response rating (0 to 100 scale, 0 no effect, 100 complete control)): 40%
pest or weed control at 125 g/ha ([9]; Echinochloa crus-galli, post-emergence, 240 h, 125 g ai/ha, visual injury rating after approximately 10 d, read-out: Barnyardgrass plant response rating (0 to 100 scale, 0 no effect, 100 complete control)): 70%
pest or weed control at 125 g/ha ([10]; Alopecurus myosuroides, post-emergence, 240 h, 125 g ai/ha, visual injury rating after approximately 10 d, read-out: Blackgrass plant response rating (0 to 100 scale, 0 no effect, 100 complete control)): 0%
plant injury at 125 g/ha ([11]; Zea mays, post-emergence, 240 h, 125 g ai/ha, visual injury rating after approximately 10 d, read-out: Corn plant response rating (0 to 100 scale, 0 no effect, 100 complete control)): 30%
pest or weed control at 125 g/ha ([12]; Setaria faberi, post-emergence, 240 h, 125 g ai/ha, visual injury rating after approximately 10 d, read-out: Foxtail, Giant plant response rating (0 to 100 scale, 0 no effect, 100 complete control)): 20%
pest or weed control at 125 g/ha ([13]; Amaranthus retroflexus, post-emergence, 240 h, 125 g ai/ha, visual injury rating after approximately 10 d, read-out: Pigweed plant response rating (0 to 100 scale, 0 no effect, 100 complete control)): 50%
pest or weed control at 125 g/ha ([14]; Ambrosia artemisiifolia, post-emergence, 240 h, 125 g ai/ha, visual injury rating after approximately 10 d, read-out: Ragweed plant response rating (0 to 100 scale, 0 no effect, 100 complete control)): 0%
pest or weed control at 125 g/ha ([15]; Lolium multiflorum, post-emergence, 240 h, 125 g ai/ha, visual injury rating after approximately 10 d, read-out: Ryegrass, Italian plant response rating (0 to 100 scale, 0 no effect, 100 complete control)): 0%
plant injury at 125 g/ha ([16]; Triticum aestivum, post-emergence, 240 h, 125 g ai/ha, visual injury rating after approximately 10 d, read-out: Wheat plant response rating (0 to 100 scale, 0 no effect, 100 complete control)): 0%
pest or weed control at 250 g/ha ([17]; Echinochloa crus-galli, 250 g ai/ha, scale of 0 to 100 where 0 is no effect and 100 is complete control, read-out: Barnyardgrass plant response rating): 0%
pest or weed control at 250 g/ha ([18]; Heteranthera limosa, 250 g ai/ha, scale of 0 to 100 where 0 is no effect and 100 is complete control, read-out: Ducksalad plant response rating): 0%
pest or weed control at 250 g/ha ([19]; Oryza sativa, 250 g ai/ha, scale of 0 to 100 where 0 is no effect and 100 is complete control, read-out: Rice plant response rating): 0%
pest or weed control at 250 g/ha ([20]; Cyperus difformis, 250 g ai/ha, scale of 0 to 100 where 0 is no effect and 100 is complete control, read-out: Sedge, Umbrella plant response rating): 0%

Cc1cccc(C2CN(C)C(=O)C2C(=O)Nc2ccccc2F)c1 (centres unmarked) [Compound 666]
Plant response rating, Kochia [1, 21]: 20
Plant response rating, Kochia [1, 22]: 60
Plant response rating, Barnyardgrass [2, 21]: 90
Plant response rating, Barnyardgrass [2, 22]: 90
Plant response rating, Foxtail, Giant [3, 21]: 100
Plant response rating, Foxtail, Giant [3, 22]: 100
Plant response rating, Pigweed [4, 21]: 0
Plant response rating, Pigweed [4, 22]: 20
Plant response rating, Ragweed [5, 21]: 0
Plant response rating, Ragweed [5, 22]: 70
Plant response rating, Ryegrass, Italian [6, 21]: 20
Plant response rating, Ryegrass, Italian [6, 22]: 50
Plant response rating, Galium [7, 23]: 30
Plant response rating, Galium [7, 24]: 40
Plant response rating, Kochia [8, 23]: 0
Plant response rating, Kochia [8, 24]: 30
Plant response rating, Barnyardgrass [9, 23]: 90
Plant response rating, Barnyardgrass [9, 24]: 90
Plant response rating, Blackgrass [10, 23]: 60
Plant response rating, Blackgrass [10, 24]: 60
Plant response rating, Corn [11, 23]: 60
Plant response rating, Corn [11, 24]: 80
Plant response rating, Foxtail, Giant [12, 23]: 90
Plant response rating, Foxtail, Giant [12, 24]: 90
Plant response rating, Pigweed [13, 23]: 0
Plant response rating, Pigweed [13, 24]: 0
Plant response rating, Ragweed [14, 23]: 0
Plant response rating, Ragweed [14, 24]: 0
Plant response rating, Ryegrass, Italian [15, 23]: 20
Plant response rating, Ryegrass, Italian [15, 24]: 60
Plant response rating, Wheat [16, 23]: 20
Plant response rating, Wheat [16, 24]: 60
Plant response rating, Barnyardgrass ([17]; 250 g ai/ha): 75
Plant response rating, Ducksalad ([18]; 250 g ai/ha): 85
Plant response rating, Rice ([19]; 250 g ai/ha): 0
Plant response rating, Sedge, Umbrella ([20]; 250 g ai/ha): 0

O=C1NCC(c2cccc3ccccc23)C1C(=O)Nc1cccc(F)c1F (racemic) [Compound 711]
Plant response rating, Kochia [1, 25]: 0
Plant response rating, Kochia [1, 22]: 0
Plant response rating, Barnyardgrass [2, 25]: 0
Plant response rating, Barnyardgrass [2, 22]: 0
Plant response rating, Foxtail, Giant [3, 25]: 0
Plant response rating, Foxtail, Giant [3, 22]: 0
Plant response rating, Pigweed [4, 25]: 0
Plant response rating, Pigweed [4, 22]: 0
Plant response rating, Ragweed [5, 25]: 0
Plant response rating, Ragweed [5, 22]: 0
Plant response rating, Ryegrass, Italian [6, 25]: 0
Plant response rating, Ryegrass, Italian [6, 22]: 0
Plant response rating, Galium [7, 26]: 0
Plant response rating, Galium [7, 24]: 0
Plant response rating, Kochia [8, 26]: 0
Plant response rating, Kochia [8, 24]: 0
Plant response rating, Barnyardgrass [9, 26]: 0
Plant response rating, Barnyardgrass [9, 24]: 0
Plant response rating, Blackgrass [10, 26]: 0
Plant response rating, Blackgrass [10, 24]: 0
Plant response rating, Corn [11, 26]: 0
Plant response rating, Corn [11, 24]: 0
Plant response rating, Foxtail, Giant [12, 26]: 0
Plant response rating, Foxtail, Giant [12, 24]: 0
Plant response rating, Pigweed [13, 26]: 0
Plant response rating, Pigweed [13, 24]: 0
Plant response rating, Ragweed [14, 26]: 0
Plant response rating, Ragweed [14, 24]: 0
Plant response rating, Ryegrass, Italian [15, 26]: 0
Plant response rating, Ryegrass, Italian [15, 24]: 0
Plant response rating, Wheat [16, 26]: 0
Plant response rating, Wheat [16, 24]: 0
Plant response rating, Barnyardgrass ([17]; 500 g ai/ha): 0
Plant response rating, Ducksalad ([18]; 500 g ai/ha): 60
Plant response rating, Rice ([19]; 500 g ai/ha): 0
Plant response rating, Sedge, Umbrella ([20]; 500 g ai/ha): 0
